Measured values as given in patent publication US11185531B2, “Arginine methyltransferase inhibitors and uses thereof” (Epizyme, Inc., priority 2013, dated 2021).

Molecular target: T1, human PRMT1 (Homo sapiens, UniProt Q99873)
T1 construct: GST-tagged PRMT1; made in house; host or cells: High Five insect cells (baculovirus)
Experiment: PRMT1 Biochemical Assay (3H-SAM Flashplate, peptide substrate)
Conditions: 30 min preincubation
From the text: Peptide representative of human histone H4 residues 36-50 was synthesized with an N-terminal linker-affinity tag motif and a C-terminal amide cap by 21st Century Biochemicals. The peptide was purified by high-performance liquid chromatography (HPLC) to greater than 95% purity and confirmed by liquid chromatography mass spectrometry (LC-MS). The sequence was Biot-Ahx-[…]-amide (SEQ ID NO.: 1).
Full-length human PRMT1 isoform 1 (NM_001536.5) transcript clone was amplified from an HEK 293 cDNA library, incorporating flanking 5′ sequence encoding a FLAG tag ([…]) (SEQ ID NO:2) fused directly to Met 1 of PRMT1. The amplified gene was subcloned into pFastBacI (Life Technologies) modified to encode an N-terminal GST tag and a TEV cleavage sequence
GST-tagged PRMT1 was eluted with 50 mM Tris, 2 mM glutathione, pH 7.8, dialysed in buffer A and concentrated to 1 mg/mL. The purity of recovered protein was 73%. Reference: Wasilko, D. J. and S. E. Lee: “TIPS: titerless infected-cells preservation and scale-up” Bioprocess J., 5 (2006), pp. 29-32.
General Procedure for PRMT1 Enzyme Assays on Peptide Substrates.
The assays were all performed in a buffer consisting of 20 mM Bicine (pH=7.6), 1 mM TCEP, 0.005% BSG, and 0.002% Tween 20, prepared on the day of use. Compounds in 100% DMSO (1 ul) were spotted into a polypropylene 384-well V-bottom plates (Greiner) using a Platemate Plus outfitted with a 384-channel head (Thermo Scientific). DMSO (1 ul) was added to Columns 11, 12, 23, 24, rows A-H for the maximum signal control and 1 ul of SAH, a known product and inhibitor of PRMT1, was added to columns 11, 12, 23, 24, rows I-P for the minimum signal control. A cocktail (40 ul) containing the PRMT1 enzyme was added by Multidrop Combi (Thermo-Fisher). The compounds were allowed to incubate with PRMT1 for 30 min at room temperature, then a cocktail (10 ul) containing SAM and peptide was added to initiate the reaction (final volume=51 ul). The final concentrations of the components were as follows: PRMT1 was 0.5 nM, ^3H-SAM was 200 nM, non-radiolabeled SAM was 1.5 uM, peptide was 20 nM, SAH in the minimum signal control wells was 1 mM, and the DMSO concentration was 2%. The assays were stopped by the addition of non-radiolabeled SAM (10 ul) to a final concentration of 300 uM, which dilutes the ^3H-SAM to a level where its incorporation into the peptide substrate is no longer detectable. 50 ul of the reaction in the 384-well polypropylene plate was then transferred to a 384-well Flashplate and the biotinylated peptides were allowed to bind to the streptavidin surface for at least 1 hour before being washed once with 0.1% Tween20 in a Biotek ELx405 plate washer. The plates were then read in a PerkinElmer TopCount plate reader to measure the quantity of ^3H-labeled peptide bound to the Flashplate surface, measured as disintegrations per minute (dpm) or alternatively, referred to as counts per minute (cpm).
Where dpm=disintegrations per minute, cmpd=signal in assay well, and min and max are the respective minimum and maximum signal controls.
Where top and bottom are the normally allowed to float, but may be fixed at 100 or 0 respectively in a 3-parameter fit. The Hill Coefficient normally allowed to float but may also be fixed at 1 in a 3-parameter fit. Y is the % inhibition and X is the compound concentration.

T1 sequence (Q99873 with tags, fused parts or gaps): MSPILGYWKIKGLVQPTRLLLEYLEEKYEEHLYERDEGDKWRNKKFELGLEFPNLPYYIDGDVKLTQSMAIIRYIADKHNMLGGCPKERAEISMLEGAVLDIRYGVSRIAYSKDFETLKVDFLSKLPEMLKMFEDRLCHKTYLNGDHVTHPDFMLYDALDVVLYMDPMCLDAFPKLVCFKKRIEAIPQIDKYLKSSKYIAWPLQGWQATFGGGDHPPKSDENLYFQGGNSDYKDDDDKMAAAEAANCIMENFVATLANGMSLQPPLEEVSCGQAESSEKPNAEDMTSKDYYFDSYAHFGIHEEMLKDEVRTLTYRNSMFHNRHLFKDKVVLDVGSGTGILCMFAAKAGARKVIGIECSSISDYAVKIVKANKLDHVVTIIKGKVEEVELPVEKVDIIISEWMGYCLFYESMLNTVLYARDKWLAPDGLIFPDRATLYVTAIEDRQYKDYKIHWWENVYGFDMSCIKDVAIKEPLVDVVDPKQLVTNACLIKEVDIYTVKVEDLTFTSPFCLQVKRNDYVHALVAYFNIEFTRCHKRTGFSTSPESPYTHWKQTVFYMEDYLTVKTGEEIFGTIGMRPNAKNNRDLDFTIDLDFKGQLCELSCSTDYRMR

SMILES	IC50 [nM]
CNCCN(C)Cc1c[nH]nc1C#Cc1cccc(OC)c1 [Compound 1]	< 100
CNCCN(C)Cc1c[nH]nc1C#Cc1ccc(C(C)(C)C)cc1 [Compound 2]	< 100
CNCCN(C)Cc1c[nH]nc1C#Cc1ccc(F)cc1 [Compound 4]	< 100
CNCCN(C)Cc1c[nH]nc1/C=C/c1ccc(-c2ccccc2)cc1 [Compound 5]	< 100
CNCCN(C)Cc1c[nH]nc1/C=C/c1ccc(C(F)(F)F)cc1 [Compound 6]	< 100
CNCCN(C)Cc1c[nH]nc1/C=C/c1ccc(OC)cc1 [Compound 7]	< 100
Cc1ccc(/C=C/c2n[nH]cc2CN(C)CCN)cc1 [Compound 8]	< 100
CN(CCN)Cc1c[nH]nc1C1=CCOCC1 [Compound 10]	101 to 1000
COc1cc(/C=C/c2n[nH]cc2CN(C)CCN)cc(OC)c1 [Compound 11]	< 100
CN(CCN)Cc1c[nH]nc1/C=C/c1ccc(F)cc1F [Compound 13]	< 100
CN(CCN)Cc1c[nH]nc1/C=C/c1cc(C(F)(F)F)cc(C(F)(F)F)c1 [Compound 14]	< 100
CN(CCN)Cc1c[nH]nc1/C=C/c1cc(F)cc(F)c1 [Compound 15]	< 100
CN(CCN)Cc1c[nH]nc1/C=C/c1cccc(C(F)(F)F)c1 [Compound 16]	< 100
COc1cccc(/C=C/c2n[nH]cc2CN(C)CCN)c1 [Compound 17]	< 100
CN(CCN)Cc1c[nH]nc1/C=C/c1ccc(C(F)(F)F)cc1 [Compound 18]	< 100
COC/C=C/c1n[nH]cc1CN(C)CCN [Compound 19]	101 to 1000
CN(CCN)Cc1c[nH]nc1/C=C/c1cccc(F)c1 [Compound 20]	< 100

SMILES	IC50 [nM]
CC(C)c1n[nH]cc1CN(C)CCN [Compound 21]	1010 to 3000
CN(CCN)Cc1c[nH]nc1C1CCCCC1 [Compound 22]	< 100
CN(CCN)Cc1c[nH]nc1CCc1ccc(F)cc1 [Compound 23, N^1-((3-(4-fluorophenethyl)-1H-pyrazol-4-yl)methyl)-N^1-methylethane-1,2-diamine]	< 100
CN(CCN)Cc1c[nH]nc1/C=C/Cc1ccccc1 [Compound 24]	< 100
CN(CCN)Cc1c[nH]nc1C1=CCCC1 [Compound 25]	101 to 1000
CC(C)Cc1n[nH]cc1CN(C)CCN [Compound 28, N^1-((3-iso-butyl-1H-pyrazol-4-yl)methyl)-N^1-methylethane-1,2-diamine]	101 to 1000
CCCc1n[nH]cc1CN(C)CCN [Compound 29]	101 to 1000
CNCCN(C)Cc1c[nH]nc1C1CCN(C(=O)Cc2ccccc2)CC1 [Compound 32]	101 to 1000
CN(CCN)Cc1n[nH]cc1C1CCCCC1 [Compound 33]	< 100
CNCCN(C)Cc1c[nH]nc1C1CCN(C(=O)C(C)C)CC1 [Compound 34]	< 100
CC1CCC(c2c[nH]nc2CN(C)CCN)CC1 (stereo not shown) [Compound 35]	< 100
CN(CCN)Cc1n[nH]cc1C1CCC(C)(C)CC1 [Compound 36]	< 100
CC1CCC(c2n[nH]cc2CN(C)CCN)CC1 (stereo not shown) [Compound 37, N^1-methyl-N^1-((3-(4-methylcyclohexyl)-1H-pyrazol-4-yl)methyl)ethane-1,2-diamine]	< 100
CN(CCN)Cc1c[nH]nc1C1CCC(C)(C)CC1 [Compound 38, N^1-((3-(4,4-dimethylcyclohexyl)-1H-pyrazol-4-yl)methyl)-N^1-methylethane-1,2-diamine]	< 100
CNCCN(C)Cc1c[nH]nc1C1CCN(C)CC1 [Compound 41]	< 100
CNCCN(C)Cc1c[nH]nc1C1CCNCC1 [Compound 42]	< 100
CN(CCN)Cc1n[nH]cc1C1CCC(N2CCOCC2)CC1 (stereo not shown) [Compound 44, N^1-methyl-N^1-((4-(4-morpholinocyclohexyl)-1H-pyrazol-3-yl)methyl)ethane-1,2-diamine]	1010 to 3000
